≈ marks a conversion by molar mass, not a printed value.
Key:
[1] = test system: Staphylococcus aureus; test: Antimicrobial activity against methicillin-resistant Staphylococcus aureus 003; format: functional
[2] = Selectivity index, ratio of HC50 for hemolytic activity against Mianyang red blood cells (unknown origin) to MIC for antimicrobial activity against methicillin resistant Staphylococcus aureus 003; format: toxicity, cell-based, RBC; details: read-out: Selectivity Index
[3] = test system: Candida albicans; test: Antimicrobial activity against fluconazole-resistant Candida albicans; format: functional
[4] = test system: Enterococcus faecalis; test: Antimicrobial activity against vancomycin resistant Enterococcus faecalis ATCC 51299; format: functional
[5] = test system: Escherichia coli; test: Antimicrobial activity against Escherichia coli; format: functional
[6] = test system: Staphylococcus aureus; test: Antimicrobial activity against methicillin-resistant Staphylococcus aureus 011; format: functional
[7] = test system: Staphylococcus aureus; test: Antimicrobial activity against Staphylococcus aureus 29; format: functional
[8] = Hemolytic activity against Mianyang red blood cells (unknown origin); format: toxicity, cell-based, RBC
[9] = test system: Pseudomonas aeruginosa; test: Antimicrobial activity against Pseudomonas aeruginosa; format: functional
[10] = test system: Staphylococcus aureus; test: Antimicrobial activity against Staphylococcus aureus 31; format: functional
[11] = test system: Staphylococcus aureus; test: Antimicrobial activity against Staphylococcus aureus 10; format: functional

| Structure (SMILES) | MIC [1] | selectivity ratio [2] | MIC [3] | MIC [4] | MIC [5] | MIC [6] | MIC [7] | HC50 [8] | MIC [9] | MIC [10] | MIC [11] |
| --- | --- | --- | --- | --- | --- | --- | --- | --- | --- | --- | --- |
| CC(=O)O[C@H]1CC[C@]2(C)[C@H]3CC=C4[C@@H]5CC(C)(C)CC[C@]5(C(=O)NCCCCN)CC[C@@]4(C)[C@]3(C)CC[C@H]2C1(C)C | 4 µg/mL (≈ 7.03 µM) | 16.5 | 4 µg/mL (≈ 7.03 µM) | 4 µg/mL (≈ 7.03 µM) | > 64 µg/mL | 2 µg/mL (≈ 3.52 µM) | 8 µg/mL (≈ 14.1 µM) | 65.8 µg/mL | > 64 µg/mL | 8 µg/mL (≈ 14.1 µM) | 8 µg/mL (≈ 14.1 µM) |
| CC1(C)CC[C@]2(C(=O)O)CC[C@]3(C)C(=CC[C@@H]4[C@@]5(C)CC[C@H](OCC(O)CCCN)C(C)(C)[C@@H]5CC[C@]43C)[C@@H]2C1 (stereo partly specified) | 4 µg/mL (≈ 7.17 µM) | 8.01 | 4 µg/mL (≈ 7.17 µM) | 8 µg/mL (≈ 14.3 µM) | > 64 µg/mL | 2 µg/mL (≈ 3.59 µM) | 2 µg/mL (≈ 3.59 µM) | 32 µg/mL | > 64 µg/mL | 8 µg/mL (≈ 14.3 µM) | 4 µg/mL (≈ 7.17 µM) |
| CC1(C)CC[C@]2(C(=O)O)CC[C@]3(C)C(=CC[C@@H]4[C@@]5(C)CC[C@H](OCC(O)CCCCN)C(C)(C)[C@@H]5CC[C@]43C)[C@@H]2C1 (stereo partly specified) | 4 µg/mL (≈ 6.99 µM) | 6.54 | 16 µg/mL (≈ 28 µM) | 8 µg/mL (≈ 14 µM) | > 64 µg/mL | 4 µg/mL (≈ 6.99 µM) | 4 µg/mL (≈ 6.99 µM) | 26.1 µg/mL | > 64 µg/mL | 8 µg/mL (≈ 14 µM) | 4 µg/mL (≈ 6.99 µM) |
| CC1(C)CC[C@]2(C(=O)O)CC[C@]3(C)C(=CC[C@@H]4[C@@]5(C)CC[C@H](OCC(O)CCCCNC(=N)N)C(C)(C)[C@@H]5CC[C@]43C)[C@@H]2C1 (stereo partly specified) | 2 µg/mL (≈ 3.26 µM) | 330 | 4 µg/mL (≈ 6.52 µM) | 4 µg/mL (≈ 6.52 µM) | > 64 µg/mL | 2 µg/mL (≈ 3.26 µM) | 8 µg/mL (≈ 13 µM) | 660 µg/mL | > 64 µg/mL | 8 µg/mL (≈ 13 µM) | 8 µg/mL (≈ 13 µM) |
| CC1(C)CC[C@]2(C(=O)O)CC[C@]3(C)C(=CC[C@@H]4[C@@]5(C)CC[C@H](OC(=O)CCC(=O)O)C(C)(C)[C@@H]5CC[C@]43C)[C@@H]2C1 [OLEANOLIC ACID 3-O-SUCCINATE] | 16 µg/mL (≈ 28.7 µM) | > 64 | 32 µg/mL (≈ 57.5 µM) | 32 µg/mL (≈ 57.5 µM) | > 64 µg/mL | 16 µg/mL (≈ 28.7 µM) | 8 µg/mL (≈ 14.4 µM) | > 1020 µg/mL | > 64 µg/mL | 32 µg/mL (≈ 57.5 µM) | 16 µg/mL (≈ 28.7 µM) |
| CC1(C)CC[C@]2(C(=O)O)CC[C@]3(C)C(=CC[C@@H]4[C@@]5(C)CC[C@H](O)C(C)(C)[C@@H]5CC[C@]43C)[C@@H]2C1 [OLEANOLIC_ACID] | 64 µg/mL (≈ 140 µM) | > 16 | > 64 µg/mL | 64 µg/mL (≈ 140 µM) | – | > 64 µg/mL | 64 µg/mL (≈ 140 µM) | > 1020 µg/mL | – | 32 µg/mL (≈ 70.1 µM) | 64 µg/mL (≈ 140 µM) |
| CC(=O)O[C@H]1CC[C@]2(C)[C@H]3CC=C4[C@@H]5CC(C)(C)CC[C@]5(C(=O)NCCCCCCCCNC(=N)N)CC[C@@]4(C)[C@]3(C)CC[C@H]2C1(C)C | 4 µg/mL (≈ 6 µM) | 57.9 | 16 µg/mL (≈ 24 µM) | 8 µg/mL (≈ 12 µM) | > 64 µg/mL | 2 µg/mL (≈ 3 µM) | 4 µg/mL (≈ 6 µM) | 232 µg/mL | > 64 µg/mL | 16 µg/mL (≈ 24 µM) | 4 µg/mL (≈ 6 µM) |
| CC1(C)S[C@@H]2[C@H](NC(=O)[C@H](N)c3ccccc3)C(=O)N2[C@H]1C(=O)O [AMPICILLIN] | > 128 µg/mL | – | – | 2 µg/mL (≈ 5.72 µM) | – | > 128 µg/mL | 2 µg/mL (≈ 5.72 µM) | > 256 µg/mL | – | 2 µg/mL (≈ 5.72 µM) | 2 µg/mL (≈ 5.72 µM) |
| CC(=O)O[C@H]1CC[C@]2(C)[C@H]3CC=C4[C@@H]5CC(C)(C)CC[C@]5(C(=O)NCCCCCCCCN)CC[C@@]4(C)[C@]3(C)CC[C@H]2C1(C)C | 8 µg/mL (≈ 12.8 µM) | 7.53 | 64 µg/mL (≈ 102 µM) | 16 µg/mL (≈ 25.6 µM) | > 64 µg/mL | 4 µg/mL (≈ 6.4 µM) | 8 µg/mL (≈ 12.8 µM) | 40.2 µg/mL | > 64 µg/mL | 32 µg/mL (≈ 51.2 µM) | 8 µg/mL (≈ 12.8 µM) |
| CC(=O)O[C@H]1CC[C@]2(C)[C@H]3CC=C4[C@@H]5CC(C)(C)CC[C@]5(C(=O)NCCCCNC(=N)N)CC[C@@]4(C)[C@]3(C)CC[C@H]2C1(C)C | 2 µg/mL (≈ 3.27 µM) | 142 | 2 µg/mL (≈ 3.27 µM) | 2 µg/mL (≈ 3.27 µM) | > 64 µg/mL | 2 µg/mL (≈ 3.27 µM) | 2 µg/mL (≈ 3.27 µM) | 284 µg/mL | > 64 µg/mL | 4 µg/mL (≈ 6.55 µM) | 2 µg/mL (≈ 3.27 µM) |
| CC(=O)O[C@H]1CC[C@]2(C)[C@H]3CC=C4[C@@H]5CC(C)(C)CC[C@]5(C(=O)NCCCN)CC[C@@]4(C)[C@]3(C)CC[C@H]2C1(C)C | 2 µg/mL (≈ 3.6 µM) | 39.2 | 2 µg/mL (≈ 3.6 µM) | 4 µg/mL (≈ 7.21 µM) | > 64 µg/mL | 2 µg/mL (≈ 3.6 µM) | 4 µg/mL (≈ 7.21 µM) | 78.5 µg/mL | > 64 µg/mL | 8 µg/mL (≈ 14.4 µM) | 4 µg/mL (≈ 7.21 µM) |
| CC1(C)CC[C@]2(C(=O)O)CC[C@]3(C)C(=CC[C@@H]4[C@@]5(C)CC[C@H](OC(=O)c6ccccc6C(=O)O)C(C)(C)[C@@H]5CC[C@]43C)[C@@H]2C1 | 32 µg/mL (≈ 52.9 µM) | > 32 | 8 µg/mL (≈ 13.2 µM) | 16 µg/mL (≈ 26.5 µM) | > 64 µg/mL | 32 µg/mL (≈ 52.9 µM) | 32 µg/mL (≈ 52.9 µM) | > 1020 µg/mL | > 64 µg/mL | 64 µg/mL (≈ 106 µM) | 16 µg/mL (≈ 26.5 µM) |
